Laboratory results: PubChem BioAssay (NCI)
“And” between values parts separate entries of the source, which are not always exact repeats. Identical values can stand only once.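 All cell lines were grown in 96-well plates and treated with compound for 48 hours. GI50 is the concentration that inhibits growth by half. Definition used: TGI = concentration required for complete inhibition of growth.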

Key:
Assay in all cases: NCI-60 cell line screen, 48 h
[1] = tested on: ACHN renal
[2] = tested on: K-562 leukemia
[3] = tested on: SF-539 CNS
[4] = tested on: SF-295 CNS
[5] = tested on: U251 CNS
[6] = tested on: NCI-H522 lung
[7] = tested on: HOP-62 NSCLC
[8] = tested on: HOP-92 NSCLC
[9] = tested on: OVCAR-5 ovarian
[10] = tested on: CCRF-CEM leukemia

SMILES	GI50 [1] [µM]	TGI [1] [µM]	GI50 [2] [µM]	TGI [2] [µM]	GI50 [3]	TGI [3]	GI50 [4] [µM]	TGI [4]	GI50 [5] [µM]	TGI [5]	GI50 [6] [µM]	TGI [6]	GI50 [7] [µM]	TGI [7]	GI50 [8] [µM]	TGI [8]	GI50 [9]	TGI [9] [µM]	GI50 [10]	TGI [10]
C=C1C(=O)O[C@H]2[C@H]1CC/C(CNC(=O)/C=C/c1ccc(Cl)cc1Cl)=C\CC[C@@]1(C)O[C@@H]21	1.13	2.48	0.696	4.16	1.53 µM	3.17 µM	1.62	3.83 µM	1.65	3.14 µM	1.09	2.51 µM	1.74	4.06 µM	0.483	2.52 µM	1.85 µM	4.1	0.304 µM	1.19 µM
O=C(NC1C=Nc2ccccc2NC1=O)c1ccccc1Cl (configuration not stated)		> 100		52.7		> 100 µM		> 100 µM		> 100 µM		> 100 µM		> 100 µM		> 100 µM		> 100		> 100 µM
COC1C(O)C(C)OC(O[C@@H]2C[C@H]3CC[C@@H]4[C@H](CC[C@]5(C)[C@@H](C6=CC(=O)OC6)CC[C@]45O)[C@@]3(C)[C@H](O)C2)C1O (some centres not stated)		0.615		0.457		0.0249 µM		0.321 µM		12.5 µM		0.132 µM		0.0362 µM		> 100 µM		0.365		> 100 µM
Clc1ccc(/C=C/c2nc(Cl)c(-c3ccc(Cl)cc3)c(Cl)n2)cc1		> 100		> 100		> 100 µM		> 100 µM		> 100 µM		> 100 µM		> 100 µM		> 100 µM		> 100		84.8 µM
O=C(Cn1c2ccccc2c2ccncc21)N/N=C\c1ccc2ccccc2c1	19.3	48.5	24.7	> 100	13.6 µM	28.7 µM	14.8	34.6 µM	14.5	29.5 µM	19.6	51.5 µM	17.3	39.3 µM	12.4	36.7 µM	36.5 µM	> 100	45.1 µM	> 100 µM
OC1c2ccccc2C2C(O)c3ccccc3C12 (configuration not stated)		> 100		> 100		> 100 µM		> 100 µM		> 100 µM		> 100 µM		> 100 µM		> 100 µM		> 100		> 100 µM
CCOC(=O)C1Oc2ccc([N+](=O)[O-])cc2C1(C)O (configuration not stated)		> 100		> 100		> 100 µM		> 100 µM		> 100 µM		> 100 µM		> 100 µM		> 100 µM		> 100		> 100 µM
Cc1cn(Cc2ccccc2CCl)c(=O)n(Cc2ccccc2CCl)c1=O	1.66	3.06	3.19	10	2.47 µM	5.65 µM	3.52	16.7 µM	1.57	3.1 µM	1.3	2.94 µM	2.31	4.13 µM	1.86	3.62 µM	2.61 µM	9.69	1.93 µM	5.5 µM
Cn1ncnc1C1c2n[nH]c(=O)c3cc(F)cc(c23)NC1c1ccc(F)cc1 (configuration not stated)	29.4	> 100	> 100	> 100	5.39 µM	> 100 µM	1.01	> 100 µM	2.18	> 100 µM	> 100	> 100 µM	7.79	> 100 µM	39.9	> 100 µM	> 100 µM	> 100	3.13 µM	> 100 µM
COc1ccc(/C(C#N)=C(/N)SCc2ccccc2Cl)cc1		> 10		49.5		32.5 µM		31.5 µM		32.6 µM		27.4 µM		34.1 µM		34.5 µM		32.9		> 100 µM
CCOC(=O)c1cn(CC)c2cc3c(cc2c1=O)SCS3		> 100		> 100		> 100 µM		> 100 µM		> 100 µM		> 100 µM		> 100 µM		> 100 µM		> 100		> 100 µM
CN(C)C(=S)SCC(N)=O		> 100		> 100		> 100 µM		> 100 µM		> 100 µM		> 100 µM		> 100 µM		> 100 µM		> 100		> 100 µM
CCCCN(CCCC)CCC(O)c1cc2ccc(C(F)(F)F)cc2c2cc(C(F)(F)F)ccc12 (configuration not stated)	2.94	12.6	2.06	5.59	2.04 µM	5.44 µM	5.18	18 µM	1.79	3.75 µM	1.79	3.54 µM	2.2	5.68 µM	1.49	4.26 µM	2.97 µM	12.8	2.96 µM	8.96 µM
c1ccc(/C(=N\Nc2ccc3ccccc3n2)c2ccccn2)cc1	0.49	8.78	0.649	6.52	0.682 µM	4.57 µM	0.211	2.13 µM	0.592	13 µM	0.412	21.7 µM	1.21	15.9 µM	0.551	19.8 µM	0.81 µM	43	0.298 µM	1.47 µM
COc1cc2c(Cc3cc(OCc4ccccc4)ccc3N)nccc2c(OC)c1OC		> 10		> 10		> 10 µM		> 10 µM		> 10 µM		> 10 µM		> 10 µM		> 10 µM		> 10		> 10 µM
O=C(NN1C(=O)CSC12CCC(c1ccccc1)CC2)c1[nH]c2ccc(F)cc2c1-c1ccccc1 (configuration not stated)	17.2	31.8	23.7	62.9	20.9 µM	38.3 µM	22	41.6 µM	15.6	29.9 µM	14.3	28.2 µM	18.3	34.7 µM	17.2	34.5 µM	18.5 µM	34.7	19.4 µM	41.1 µM
c1ccc2c(CN3CCC(C4CCN(Cc5cccc6ccccc56)CC4)CC3)cccc2c1		> 100			3.63 µM and 8.99 µM	9.53 µM and 18 µM		19.4 µM and 14.2 µM		25.5 µM and 47.6 µM		26.3 µM and 23.4 µM		21.4 µM and > 69.4 µM		12 µM and 32.9 µM	22.3 µM and > 100 µM	> 100	13.7 µM and 4 µM	65.3 µM and > 31.6 µM
